Results: PubChem BioAssay AID179 (DTP/NCI, 2004)
Active and inactive are the calls of the source.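 The calls were made as follows: active = compounds giving half or more protection of infected cells from virus-caused growth loss, again on retest; inactive = the rest.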 Where a SMILES comes first, the peptide text is derived from it. Side-chain parts run from the residue outwards. The star is where a group is joined. Cbz = O=C(OCc1ccccc1)*; Boc = CC(C)(C)OC(=O)*

System: CEM cells HIV-1 protection, formazan growth assay
Experiment: NCI AIDS Antiviral Assay
Details: for IC50: measured here: growth of uninfected CEM cells
Procedure, shortened: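 Human CEM cells, uninfected and HIV-1-infected, exposed to five drug concentrations; growth measured by soluble formazan assay and scored as percent protection from infection, with protecting compounds retested.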

Row | Structure (SMILES) | outcome | EC50 [µM] | IC50 [µM]
1 | COc1cc(/C=C/c2cc(O)cc(C3OC(CO)C(O)C(O)C3O)c2)ccc1O (configuration not stated) | inactive | – | –
2 | C=CCN1C(=O)CSC1=S | – | > 288 | 13.5
3 | CCCNC(=O)N(CCC)S(=O)(=O)c1ccc(Cl)cc1 | inactive | – | –
4 | COc1cc(C2OC(N)=C(C#N)C3=C2C(C)CCC3)cc(OC)c1OC (configuration not stated) | inactive | – | –
5 | Cc1ccc(C2(O)CC(c3ccc([N+](=O)[O-])o3)=NN2C(=O)COc2ccc(Cl)cc2)cc1 (configuration not stated) | – | > 11.5 | > 11.5
6 | S=c1[nH]nc2nc(Nc3ccccc3)nc(Nc3ccccc3)n12 | – | > 21.4 | > 21.4
7 | CCOC(=O)c1[nH]c(CN(C)Cc2[nH]c(C(=O)OCC)c(C)c2C(=O)OCc2ccccc2)c(C(=O)OCc2ccccc2)c1C | – | > 6.03 | > 6.03
8 | CCOC(=O)c1c2c(nc3c1CCCC3)CCCC2 | – | > 200 | 64.6
9 | Cc1ccc2c(c1)C1(OC(=O)c3ccccc31)c1ccc(F)cc1O2 (configuration not stated) | – | > 91.2 | 22.9
10 | OC1CCSc2ccccc21 (configuration not stated) | – | > 200 | > 200
11 | COC(=O)[C@@H]1Cc2c([nH]c3ccccc23)[C@H](c2ccccc2)N1 | inactive | – | –
12 | CCOC(=O)C1=CNC(C(=O)OCC)C1c1cccn1-c1ccc(Cl)cc1[N+](=O)[O-] (configuration not stated) | – | > 200 | 26.3
13 | CC1NOC(=O)C1N=Nc1ccccc1Br (configuration not stated) | – | > 66.1 | 63.1
14 | O=[N+]([O-])c1c(C=Nc2ccccc2)oc(-c2ccc3c(c2)OCO3)c1-c1ccc2c(c1)OCO2 | – | > 49 | > 49
15 | Cc1cc(=O)[nH]c(NNC(C#N)c2c(O)ccc3ccccc23)n1 (configuration not stated) | – | > 16.2 | 1.07
16 | Cc1cccc2nc3nc(Cl)c(Cl)nc3n12 | – | > 200 | 129
17 | COC1=C(N=[N+]=[N-])C(=O)c2ncccc2C1=O | inactive | – | –
18 | CC(C)N1CN(C(C(=O)N[C@@H]2C(=O)N3C2SC(C)(C)C3C(=O)O)c2ccccc2)CSC1=S (some centres not stated) | – | > 257 | 155
19 | CC(C)(/C=N\O)NO | – | > 200 | > 200
20 | O=S1Cc2ccccc2CSS1 (configuration not stated) | inactive | – | –
21 | COc1ccc(SCc2cc(OC)ccc2OC)cc1 | – | > 200 | 3.98
22 | COc1cc(OS(=O)(=O)O)c2c(c1)cc(O)c1c(=O)cc(C)oc12 | – | > 151 | > 151

Row | Structure (SMILES) | outcome | EC50 [µM] | IC50 [µM]
23 | O=c1c2ccccc2c(=O)c2cc3c(=O)n(-c4ccccc4)c(=O)c3cc12 | inactive | – | –
24 | C=CC1(C)CCC2=C(CCC3C(C)(C(=O)OC)CCCC23C)C1=O (configuration not stated) | – | > 200 | 28.8
25 | O=S(=O)(O)C(O)C(F)(F)C(F)(F)C(F)(F)F (configuration not stated) | – | > 200 | > 200
26 | CCCCOP(=S)(OCCCC)SC1(SC)SSC=C1CC(C)(C)C (configuration not stated) | inactive | – | –
27 | CCOC(=O)c1c(SCCCN2CCCCC2)n(-c2ccccc2)c(=S)n(-c2ccccc2)c1=O | – | > 37.2 | 6.31
28 | O=C1NC(O)c2cc(Cl)cc(Cl)c2O1 (configuration not stated) | inactive | – | –
29 | CO[C@H](c1ccccc1)[C@H](C)N(C)c1ccc2ccccc2c1C1=NC(C)(C)CO1 | – | > 64.6 | > 64.6
30 | COc1ccc(C(c2c(O)c3ccccc3oc2=O)c2c(O)c3ccccc3oc2=O)cc1 | – | > 200 | 87.1
31 | C=CCOCn1ccc(NC(=O)c2ccccc2)nc1=O | – | > 200 | > 200
32 | NC(=O)NCCC[C@H](NC(=O)[C@H](CS)NC(=O)[C@@H](N)Cc1cnc[nH]1)C(=O)N[C@H](Cc1ccccc1)C(=O)N[C@@H](Cc1c[nH]c2ccccc12)C(=O)N[C@@H](Cc1c[nH]c2ccccc12)C(N)=O | – | > 200 | > 200
33 | C=C1C(=O)O[C@@H]2C[C@@H](C)[C@@H]3C=CC(=O)[C@@]3(C)[C@@H](O)[C@H]12 | – | > 9.55 | 0.513
34 | O=C(Nc1ccccc1)N1CC(CN2CCN(c3ccccc3)CC2)OC1=O (configuration not stated) | – | > 200 | > 200
35 | CC1=C(C(=O)Nc2ccccc2)C(c2ccc(C3C(C(=O)Nc4ccccc4)=C(C)NC(C)=C3C(=O)Nc3ccccc3)cc2)C(C(=O)Nc2ccccc2)=C(C)N1 | – | > 12.9 | 2.4
36 | CC1C(C#N)(C#N)C(C#N)=C(N)C1(Cl)[N+](=O)[O-] (configuration not stated) | – | > 200 | 3.72
37 | COc1nc(N)c(C#N)c(C#N)c1C#N | – | > 200 | > 200
38 | NNC(=O)c1ccccc1SSc1ccccc1C(=O)NN | – | 0.537 | 3.55
39 | COC(=O)C(CC1CC(OC(C)=O)c2[nH]c3ccccc3c2CCN(C(C)=O)C1)C(=O)OC (configuration not stated) | – | > 135 | > 135
40 | O=C1Cc2cccc(=O)c(O)c2C(=O)O1 | – | > 1200 | 282
41 | ClC1=NSSC1(Cl)Cl | – | > 200 | 27.5
42 | COc1ccc(C(O)C(=O)c2nc3ccc([N+](=O)[O-])cc3[nH]c2=O)cc1 (configuration not stated) | – | 107 | 129
43 | N[C@@H](Cc1ccc(O)c(O)c1)C(=O)O | – | > 200 | 51.3
44 | c1ccc2oc(NCCSSCCNc3nc4ccccc4o3)nc2c1 | – | > 200 | 10.5

Row | Structure (SMILES) | outcome | EC50 [µM] | IC50 [µM]
45 | COC(=O)C1=CC2OC1(C)CCC2=O (configuration not stated) | inactive | – | –
46 | CSC(=S)CC(O)[C@@H]1CC2c3ccccc3C1c1ccccc12 (some centres not stated) | – | > 200 | 3.47
47 | Cc1ccc(NC(=O)CCc2cc(C(C)(C)C)nc(=S)[nH]2)cc1C | – | > 724 | 398
48 | COc1ccc2c(ccc3c(COC(=O)NC(C)C)c(COC(=O)NC(C)C)n(C)c32)c1 | – | > 200 | 0.112
49 | Cc1c(/C=N/NC(=S)Nc2ccccc2Cl)c(=O)n(-c2ccccc2)n1C | – | > 200 | 26.9
50 | CCCCCCCCCCCCCC1CCC(CC)N1 (configuration not stated) | – | > 331 | > 331
51 | C=C(C)[C@@H]1CC=C2[C@H](O)CC(O)C(C)[C@@]2(C)C1 (some centres not stated) | – | > 209 | 51.3
52 | CN1C(OCc2ccccc2)c2c(ccc3c2OCO3)C2C=Cc3cc4c(cc3C21)OCO4 (configuration not stated) | – | > 11.7 | 0.676
53 | Cc1ccc([N+](=O)[O-])c2c(NCCC[N+](C)(C)[O-])c3ccccc3nc12 | – | > 2 | 0.316
54 | Clc1ccc(OCCSCCCCCCCCCCSCCOc2ccc(Cl)cc2)cc1 | – | > 7.24 | > 7.24
55 | O=[N+]([O-])c1ccc(-c2nc(N(CCO)CCO)c3ccccc3n2)o1 | – | > 200 | 0.331
56 | CC1CCC2C(C)C(=O)OC3OC4(C)CCC1C32OO4 (configuration not stated) | – | > 457 | 288
57 | Clc1cccc(N2CCN(CCCN3CCc4c([nH]c5ccccc45)C3c3cccnc3)CC2)c1 (configuration not stated) | – | > 5.37 | > 5.37
58 | [N-]=[N+]=CC(=O)OC1CCc2ccccc21 (configuration not stated) | – | > 200 | > 200
59 | CN(C)C=Nc1ccc2nonc2c1 | – | > 200 | 151
60 | CCC(=O)CCCC=C(c1cc(Cl)c(OC)c(C(=O)CC)c1)c1cc(Cl)c(OC)c(C(=O)CC)c1 | – | > 200 | 6.31
61 | COc1ccc(O)c2c1C(=O)CCCC2=O | inactive | – | –
62 | C=CCCCN1C(=O)CCCC1=O | inactive | – | –
63 | CN(CCO)c1cnn(CCO)c(=O)c1Cl | – | > 200 | > 200
64 | CC(C)(C)OC(=O)NC(CCCCNC(=O)CNC(=O)OCc1ccccc1)C(=O)NC(CCCCNC(=O)CNC(=O)OCc1ccccc1)C(=O)NC(CCCCNC(=O)CNC(=O)OCc1ccccc1)C(=O)NC(CCCCNC(=O)CNC(=O)OCc1ccccc1)C(=O)O (configuration not stated) (Boc-K([Gly-Cbz])K([Gly-Cbz])K([Gly-Cbz])K([Gly-Cbz])-OH; configuration not given here) | – | 72.4 | > 100
65 | Cc1cn(C2CC(OC=O)C(CO)O2)c(=O)[nH]c1=O (configuration not stated) | – | > 5750 | 61.7
66 | CCOP(=O)(OCC)C1C(CO)OC(n2ccc(=O)[nH]c2=O)C1O (configuration not stated) | – | > 200 | 74.1

Row | Structure (SMILES) | outcome | EC50 [µM] | IC50 [µM]
67 | N#Cc1cc2c(n(NS(=O)(=O)c3ccccc3)c1=O)CCCCC2 | – | > 200 | > 200
68 | COc1ccc(C2=C(Cl)c3cc(OC)c(OC)cc3C2=O)cc1OC | – | > 200 | 1.45
69 | CCc1cc2c(oc3cc(C)ccc32)c(=O)n1C | – | > 200 | 97.7
70 | CC1=C2CC(C)(C)CC(=O)C2(C)CCC1=O (configuration not stated) | inactive | – | –
71 | COc1ccc([P+](Cc2ccccc2)(c2ccccc2)c2ccc3ccccc3c2)cc1 (configuration not stated) | – | > 200 | 0.794
72 | COc1ccc(NC(=O)C(=O)C(C(=O)c2ccccc2)C2OC(=O)c3ccccc32)c([N+](=O)[O-])c1 (configuration not stated) | – | > 135 | > 135
73 | c1ccc(NCn2cnc3ccccc32)cc1 | inactive | – | –
74 | O=C(Nc1ccc(Cl)cc1)NS(=O)(=O)c1coc2ccccc2c1=O | – | > 200 | 93.3
75 | c1ccc([P+](CCCCCCCC[P+](c2ccccc2)(c2ccccc2)c2ccccc2)(c2ccccc2)c2ccccc2)cc1 | – | > 100 | 1.23
76 | CC12C=CC(=O)C=C1CCC1C3CCC(O)(C(=O)CO)C3(C)CC(O)C12F (configuration not stated) | inactive | – | –
77 | CC(C)CC1C(=O)NCCC(NC(=O)C(N)Cc2ccc(O)cc2)C(=O)NC(Cc2ccccc2)C(=O)NC(Cc2ccccc2)NC1=O (configuration not stated) | – | > 100 | > 100
78 | COC(=O)C1=C2Nc3ccccc3[C@@]23CCN(Cc2ccccc2)C3CC1[C@@H]1COC(C)(C)O1 (some centres not stated) | – | > 100 | 51.3
79 | CCCc1[nH]nc(CCC(=O)N(Cc2ccccc2)Cc2ccccc2)c1CC | – | > 331 | > 331
80 | O=C1C(Br)=C(c2ccccc2)C(c2ccccc2)=C1c1ccccc1 | inactive | – | –
81 | C#CCn1c(I)cc2c(c1=O)COC(=O)[C@]2(O)CC | – | > 200 | > 200
82 | COCN1C(=O)C2CC(/C=C/C(N)=O)=CN2C(=O)c2ccccc21 (configuration not stated) | inactive | – | –
83 | CCOC(=O)Nc1cc(NC(/C=N/NC(C)=O)C(=O)OCC)c(OC)cc1NC(C)=O (configuration not stated) | – | > 200 | > 200
84 | COc1cc(/C=C2\SC(=S)N(/C=C(/C#N)C(=O)c3ccc4ccccc4c3)C2=O)cc(OC)c1OC | – | > 200 | 14.8
85 | Cc1ccc(C(=O)OC(C)C)cc1N=NN(C)C | – | > 55 | > 55
86 | COc1cc(-c2cc(OC)c(OC)c3ccc(Br)cc23)c2cc(Br)ccc2c1OC | – | > 200 | 102
87 | C/C(CC(O)(C(F)(F)F)C(F)(F)F)=N\NC(N)=O | – | > 200 | > 200
